For data set [1], the system named is production of IL-1β by human monocyte-derived THP-1 cells. The data set can be described thus: Inhibitory activity against the production of IL-1β by human monocyte-derived THP-1 cells (LPS-stimulated, ELISA). It is filed as cell-based. The following applies: THP-1 cells differentiated with PMA 30 nM, 65 h, LPS 25 μg/ml, 4 hours, serum-free RPMI1640, test compound 0.05-50 μg/ml, read-out: IC50 (50% inhibitory concentration), IL-1 production inhibition. The method, then:
The inhibitory activity of EI-1941 compounds against the production of IL-1β by human monocyte-derived THP-1 cells (ATCC No. TIB 202) was examined in the following manner. The amount of IL-1β was determined by the ELISA method.
THP-1 cells were suspended in RPMI1640 medium (Nissui Pharmaceutical Co., Ltd.) containing 10% inactivated fetal calf serum at a concentration of 1×10^5 cells/ml. The cell suspension was put into wells of a 24-well plate in an amount of 1 ml/well. Phorbol 12-myristate 13-acetate (PMA, final concentration: 30 nM) was added to the wells, followed by incubation in a 5% CO2 -incubator at 37° C. for 65 hours to differentiate the cells into macrophage.
Then, the plate was gently washed with serum-free RPMI1640 medium to remove the cells which were not adhered to the wells, and the residue was cultured for 4 hours in serum-free RPMI1640 medium (1 ml/well) containing lipopolysaccharide (LPS, final concentration: 25 μg/ml) and a test compound (final concentration: 0.05-50 μg/ml).
After the completion of culturing, the amount of IL-1β released into the culture supernatant was determined by using an IL-1β determination kit (Amersham Corp.).
The IL-1 production inhibition rate was calculated according to the following equation to obtain IC50 (50% inhibitory concentration).
IL-1 production inhibition rate (%)=(A-B)/(A-C)×100
A: Amount of IL-1 produced when only LPS is added […]
(In general: ELISA stands for enzyme-linked immunosorbent assay.)

A further data set in a line: Solubility. It is filed as physicochemical. The following applies: in methanol and acetonitrile.

Turning to `CCCC1CC2=C(C(=O)O1)C(O)C1OC1C2=O` (centres unmarked) [EI-1941-2], the IC50 in data set [1] was 2.2 µM. Besides, in the data set “Solubility”, the Solubility entry was “Readily soluble in methanol and acetonitrile”.
Take `CCCC1CC2=C(C(O)O1)C(O)C1OC1C2=O` (centres unmarked) [EI-1941-1]: the IC50 in data set [1] came out at 1 µM. In addition, in the data set “Solubility”, the Solubility entry is “Readily soluble in methanol and acetonitrile”.
Regarding `CCCC1CC2=C(C(=O)O1)C(O)C(O)CC2=O` (centres unmarked) [EI-1941-3], in the data set “Solubility”, the Solubility entry is “Readily soluble in methanol and acetonitrile”.

(Values after US5686485A, “Physiologically active EI-1941 compounds” (Kyowa Hakko Kogyo Co., Ltd., priority 1995, dated 1997).)
